Like-named read-outs stand apart in the source and are kept apart here.
Columns and labels:
Type in all cases: cell-based
m5 muscarinic receptor = biological target: T1, m5 muscarinic receptor (Homo sapiens, UniProt P08912); assay: Single Receptor Format amplification assay, β-galactosidase marker, NIH 3T3 cells transfected with m5; settings: for Muscarinic Agonists (% Max), m5: maximum response as % of carbachol response (carbachol 5 μM)
T1 construct: expressed in transfected cells; host or cells: NIH 3T3
T1 sequence (P08912 1-532): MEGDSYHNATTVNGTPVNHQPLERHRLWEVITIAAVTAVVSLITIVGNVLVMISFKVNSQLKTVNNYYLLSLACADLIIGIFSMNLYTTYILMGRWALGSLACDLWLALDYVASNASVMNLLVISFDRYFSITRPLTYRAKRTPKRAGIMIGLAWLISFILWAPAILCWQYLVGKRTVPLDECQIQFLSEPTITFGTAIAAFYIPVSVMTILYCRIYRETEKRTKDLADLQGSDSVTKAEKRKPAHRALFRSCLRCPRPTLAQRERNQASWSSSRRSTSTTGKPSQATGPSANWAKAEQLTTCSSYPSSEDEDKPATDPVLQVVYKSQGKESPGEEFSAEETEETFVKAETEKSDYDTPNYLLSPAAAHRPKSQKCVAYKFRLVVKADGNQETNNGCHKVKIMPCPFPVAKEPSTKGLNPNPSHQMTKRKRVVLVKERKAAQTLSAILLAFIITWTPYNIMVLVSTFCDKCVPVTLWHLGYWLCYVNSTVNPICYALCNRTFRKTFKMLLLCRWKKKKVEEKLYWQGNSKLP

m4 muscarinic receptor = biological target: T2, m4 muscarinic receptor (Homo sapiens, UniProt P08173); assay: Single Receptor Format amplification assay, β-galactosidase marker, NIH 3T3 cells transfected with m4 and chimeric G-protein; settings: for EC50: cotransfected with Gqi5, mean ±SE of 2-4 experiments, read-out: Muscarinic Agonists EC50 [μM], m4
T2 construct: expressed in transfected cells; host or cells: NIH 3T3
T2 sequence (P08173 1-479): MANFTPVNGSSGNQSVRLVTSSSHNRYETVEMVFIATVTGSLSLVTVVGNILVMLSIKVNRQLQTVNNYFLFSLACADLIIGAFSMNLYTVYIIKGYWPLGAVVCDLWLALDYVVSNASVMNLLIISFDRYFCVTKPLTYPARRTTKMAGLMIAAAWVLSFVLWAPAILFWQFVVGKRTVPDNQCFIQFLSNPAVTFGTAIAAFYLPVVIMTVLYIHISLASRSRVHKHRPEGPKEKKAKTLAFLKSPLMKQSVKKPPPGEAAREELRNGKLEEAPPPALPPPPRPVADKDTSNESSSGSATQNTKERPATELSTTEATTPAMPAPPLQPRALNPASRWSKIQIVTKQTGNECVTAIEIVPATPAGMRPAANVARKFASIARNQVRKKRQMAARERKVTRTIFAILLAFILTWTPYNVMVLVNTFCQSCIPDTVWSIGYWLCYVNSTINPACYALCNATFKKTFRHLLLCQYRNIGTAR

m2 muscarinic receptor = biological target: T3, m2 muscarinic receptor (Homo sapiens, UniProt P08172); assay: Single Receptor Format amplification assay, β-galactosidase marker, NIH 3T3 cells transfected with m2 and Gq-i5
T3 construct: expressed in transfected cells; host or cells: NIH 3T3
T3 sequence (P08172 1-466): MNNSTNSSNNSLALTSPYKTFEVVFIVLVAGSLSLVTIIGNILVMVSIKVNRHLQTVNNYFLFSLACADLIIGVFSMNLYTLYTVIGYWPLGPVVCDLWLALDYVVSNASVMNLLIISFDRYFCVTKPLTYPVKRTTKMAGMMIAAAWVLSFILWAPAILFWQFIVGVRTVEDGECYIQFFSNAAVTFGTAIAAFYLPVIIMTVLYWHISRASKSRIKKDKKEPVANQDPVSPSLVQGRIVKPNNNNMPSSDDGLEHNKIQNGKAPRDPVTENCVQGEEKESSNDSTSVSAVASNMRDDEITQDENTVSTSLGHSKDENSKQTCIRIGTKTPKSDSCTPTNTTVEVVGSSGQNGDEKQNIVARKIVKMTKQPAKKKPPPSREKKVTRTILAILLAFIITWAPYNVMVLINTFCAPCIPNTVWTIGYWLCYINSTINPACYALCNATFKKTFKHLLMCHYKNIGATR

m1 muscarinic receptor = biological target: T4, m1 muscarinic receptor (Homo sapiens, UniProt P11229); assay: Single Receptor Format amplification assay, β-galactosidase marker, NIH 3T3 cells transfected with m1
T4 construct: expressed in transfected cells; host or cells: NIH 3T3
T4 sequence (P11229 1-460): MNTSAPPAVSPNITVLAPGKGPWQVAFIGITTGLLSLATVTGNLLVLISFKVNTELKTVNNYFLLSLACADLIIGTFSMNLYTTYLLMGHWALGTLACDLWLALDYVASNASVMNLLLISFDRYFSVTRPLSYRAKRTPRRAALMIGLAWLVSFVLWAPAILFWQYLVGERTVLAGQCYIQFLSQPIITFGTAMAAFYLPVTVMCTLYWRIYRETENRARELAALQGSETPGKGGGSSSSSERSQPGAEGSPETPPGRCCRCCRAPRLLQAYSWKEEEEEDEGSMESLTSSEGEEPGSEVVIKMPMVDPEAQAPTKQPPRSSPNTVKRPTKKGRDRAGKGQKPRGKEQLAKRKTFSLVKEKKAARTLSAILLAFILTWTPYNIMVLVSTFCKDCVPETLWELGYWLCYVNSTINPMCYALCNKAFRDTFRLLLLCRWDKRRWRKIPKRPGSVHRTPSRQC

m3 muscarinic receptor = biological target: T5, m3 muscarinic receptor (Homo sapiens, UniProt P20309); assay: Single Receptor Format amplification assay, β-galactosidase marker, NIH 3T3 cells transfected with m3; settings: for EC50: β-gal amplification, mean ±SE of 2-4 experiments, read-out: Muscarinic Agonists EC50 [μM], m3
T5 construct: expressed in transfected cells; host or cells: NIH 3T3

[1] = biological target: T6, α2-C4 adrenergic receptor (Homo sapiens, UniProt P18825); assay: Single Receptor Format amplification assay, alpha 2 C4; settings: for Max Response, α2-C4: relative to other ligands at the given receptor
T6 construct: expressed in transfected cells; host or cells: NIH 3T3
T6 sequence (P18825 1-462): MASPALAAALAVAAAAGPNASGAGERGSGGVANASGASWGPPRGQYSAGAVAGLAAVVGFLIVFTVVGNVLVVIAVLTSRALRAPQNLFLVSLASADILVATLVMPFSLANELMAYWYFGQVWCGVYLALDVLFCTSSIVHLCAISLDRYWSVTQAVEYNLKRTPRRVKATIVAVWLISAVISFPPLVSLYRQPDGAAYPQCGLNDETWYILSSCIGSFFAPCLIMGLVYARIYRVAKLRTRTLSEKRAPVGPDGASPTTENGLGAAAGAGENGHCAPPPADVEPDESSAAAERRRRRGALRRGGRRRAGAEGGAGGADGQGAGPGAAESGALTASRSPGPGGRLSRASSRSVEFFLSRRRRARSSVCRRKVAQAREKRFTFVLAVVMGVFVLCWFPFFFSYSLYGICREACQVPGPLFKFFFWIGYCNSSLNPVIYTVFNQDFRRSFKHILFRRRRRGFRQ

[2] = biological target: T7, α2-C10 adrenergic receptor (Homo sapiens, UniProt P08913); assay: Single Receptor Format amplification assay, alpha 2 C10; settings: relative to other ligands at the given receptor
T7 construct: expressed in transfected cells; host or cells: NIH 3T3
T7 sequence (P08913 1-465): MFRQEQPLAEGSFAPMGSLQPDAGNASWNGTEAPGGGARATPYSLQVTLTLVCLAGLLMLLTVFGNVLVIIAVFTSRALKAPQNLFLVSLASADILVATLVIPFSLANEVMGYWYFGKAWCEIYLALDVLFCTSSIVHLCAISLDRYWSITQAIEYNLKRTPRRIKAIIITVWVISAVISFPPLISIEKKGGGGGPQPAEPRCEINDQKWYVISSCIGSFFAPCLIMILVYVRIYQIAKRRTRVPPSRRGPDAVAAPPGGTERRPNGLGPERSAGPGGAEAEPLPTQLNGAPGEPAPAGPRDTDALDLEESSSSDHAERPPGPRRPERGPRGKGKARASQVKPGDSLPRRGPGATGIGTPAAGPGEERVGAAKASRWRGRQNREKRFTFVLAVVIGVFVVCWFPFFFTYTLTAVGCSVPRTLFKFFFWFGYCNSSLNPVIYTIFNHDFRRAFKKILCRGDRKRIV

[3] = biological target: T8, α2-C2 adrenergic receptor (Homo sapiens, UniProt P18089); assay: Single Receptor Format amplification assay, alpha 2 C2; settings: relative to other ligands at the given receptor
T8 construct: expressed in transfected cells; host or cells: NIH 3T3
T8 sequence (P18089 1-450): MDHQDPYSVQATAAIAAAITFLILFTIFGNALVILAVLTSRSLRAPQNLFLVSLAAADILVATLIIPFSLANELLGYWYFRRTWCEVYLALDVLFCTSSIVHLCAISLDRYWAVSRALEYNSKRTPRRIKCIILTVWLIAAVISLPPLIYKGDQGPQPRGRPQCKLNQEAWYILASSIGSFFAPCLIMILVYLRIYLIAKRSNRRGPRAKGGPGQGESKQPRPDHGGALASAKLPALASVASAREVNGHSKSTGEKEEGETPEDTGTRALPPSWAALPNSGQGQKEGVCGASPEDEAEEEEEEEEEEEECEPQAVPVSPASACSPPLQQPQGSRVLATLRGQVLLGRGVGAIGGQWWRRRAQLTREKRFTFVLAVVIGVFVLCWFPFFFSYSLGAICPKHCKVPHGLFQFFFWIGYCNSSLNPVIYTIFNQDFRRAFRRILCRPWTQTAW

trk C receptor = biological target: T9, trk C receptor (Homo sapiens, UniProt Q16288); assay: Single Receptor Format amplification assay, trk C; settings: data not shown
T9 construct: expressed in transfected cells; host or cells: NIH 3T3
Source text: Also illustrated is the dose-response relationships of the related neutrotrophic factor NT3.
Receptors belonging to several functional categories have successfully been assayed using the general protocol for the Single Receptor Format described above. […] A diversity of signal transduction classes are also illustrated: G-protein coupled receptors, tyrosine kinase linked receptors, G-proteins and oncogenes. In a few of these cases, focus assays have been used to assay ligand interaction with the illustrated receptors.

[4] = maximum response as % of carbachol response (carbachol 10 μM), Gqi5

T5 sequence (P20309 whole entry): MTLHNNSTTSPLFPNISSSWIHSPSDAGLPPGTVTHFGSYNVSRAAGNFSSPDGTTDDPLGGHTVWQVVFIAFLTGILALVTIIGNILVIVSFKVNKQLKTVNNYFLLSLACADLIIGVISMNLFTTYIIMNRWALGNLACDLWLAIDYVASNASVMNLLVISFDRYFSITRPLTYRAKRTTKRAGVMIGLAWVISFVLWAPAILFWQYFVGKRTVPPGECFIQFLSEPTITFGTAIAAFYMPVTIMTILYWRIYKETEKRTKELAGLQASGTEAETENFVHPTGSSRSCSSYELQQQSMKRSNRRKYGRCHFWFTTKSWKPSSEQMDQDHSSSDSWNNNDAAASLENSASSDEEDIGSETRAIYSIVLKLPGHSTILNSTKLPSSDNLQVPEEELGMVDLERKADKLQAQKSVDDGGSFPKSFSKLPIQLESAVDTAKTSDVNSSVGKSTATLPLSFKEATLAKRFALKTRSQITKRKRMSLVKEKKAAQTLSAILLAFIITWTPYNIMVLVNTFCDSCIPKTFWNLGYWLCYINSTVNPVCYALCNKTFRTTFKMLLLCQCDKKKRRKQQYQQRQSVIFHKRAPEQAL

C[C@@H]1O[C@H](C[N+](C)(C)C)C[C@H]1O [muscarine]
EC50 (m5 muscarinic receptor): 0.39 ± 0.18 µM | Muscarinic Agonists (% Max), m5 (m5 muscarinic receptor): (86 ± 0) % | Muscarinic Agonists (% Max), m4 (m4 muscarinic receptor): (69 ± 2) % | EC50 (m4 muscarinic receptor): 0.32 ± 0.15 µM | Muscarinic Agonists (% Max), m2 (m2 muscarinic receptor): (76 ± 1) % | Muscarinic Agonists (% Max), m1 (m1 muscarinic receptor): (84 ± 4) % | Muscarinic Agonists (% Max), m3 (m3 muscarinic receptor): (84 ± 6) % | EC50 (m3 muscarinic receptor): 0.56 ± 0.25 µM

C1COC(NC(C2CC2)C2CC2)=N1 [Rilmenidine]
EC50 ([1]; Table 3, 8-10 concentrations, 3-4 replicates, read-out: Agonist EC50 nM, α2-C4): 480 nM | Max Response, α2-C4 [1]: + | Max Response, α2-C10 [2]: ± | Max Response, α2-C2 [3]: ±

C[N+](C)(C)CCOC(N)=O [carbachol]
Muscarinic Agonists (% Max), m5 (m5 muscarinic receptor): (100) % | Muscarinic Agonists (% Max), m4 (m4 muscarinic receptor; [4]): (100) % | Muscarinic Agonists (% Max), m2 (m2 muscarinic receptor; [4]): (100) %

Nc1cc(Cl)c(N=C2NCCN2)c(Cl)c1 [p-NH2-Clonidine]
Max Response, α2-C4 [1]: ± | Max Response, α2-C10 [2]: ±

CC(C)NCC(O)c1ccc(O)c(O)c1 (centres unmarked) [Isoproterenol]
Max Response, α2-C4 [1]: +

NGF: Nerve growth factor (NGF) is an agonist for the trk A receptor
amplification response in cells transfected with trk C (trk C receptor): not able to induce amplification responses

C[N+](C)(C)CC#CCOC(=O)Nc1cccc(Cl)c1.[Cl-] [McN A-434]
Muscarinic Agonists (% Max), m5 (m5 muscarinic receptor): (57 ± 4) % | EC50 (m5 muscarinic receptor; β-gal amplification, mean ±SE of 2-4 experiments, read-out: Muscarinic Agonists EC50 [μM], m5): 1 ± 0.3 µM | EC50 (m4 muscarinic receptor): 0.12 ± 0.02 µM | Muscarinic Agonists (% Max), m4 (m4 muscarinic receptor; [4]): (84 ± 3) % | EC50 (m2 muscarinic receptor; cotransfected with Gqi5, mean ±SE of 2-4 experiments, read-out: Muscarinic Agonists EC50 [μM], m2): 1.5 ± 0.6 µM | Muscarinic Agonists (% Max), m2 (m2 muscarinic receptor; [4]): (108 ± 7) % | Muscarinic Agonists (% Max), m1 (m1 muscarinic receptor; maximum response as % of carbachol response (carbachol 200 μM)): (43 ± 2) % | EC50 (m1 muscarinic receptor; β-gal amplification, mean ±SE of 2-4 experiments, read-out: Muscarinic Agonists EC50 [μM], m1): 1.1 ± 0.2 µM | Muscarinic Agonists (% Max), m3 (m3 muscarinic receptor; maximum response as % of carbachol response (carbachol 100 μM)): (38 ± 2) % | EC50 (m3 muscarinic receptor): 2.2 µM

Cc1cc(C(C)(C)C)c(O)c(C)c1CC1=NCCN1 [Oxymetazoline]
Max Response, α2-C4 [1]: +

O=C1CCCN1CC#CCN1CCCC1 [oxotremorine]
Muscarinic Agonists (% Max), m5 (m5 muscarinic receptor): (74 ± 2) % | Muscarinic Agonists (% Max), m4 (m4 muscarinic receptor): (102 ± 3) % | Muscarinic Agonists (% Max), m2 (m2 muscarinic receptor): (100 ± 5) % | Muscarinic Agonists (% Max), m1 (m1 muscarinic receptor): (75 ± 10) % | Muscarinic Agonists (% Max), m3 (m3 muscarinic receptor): (66 ± 5) %

— patent US20090156501A1, “IDENTIFICATION OF LIGANDS BY SELECTIVE AMPLIFICATION OF CELLS TRANSFECTED WITH RECEPTORS” (ACADIA PHARMACEUTICALS, INC., priority 1999, published 2009)
